# Activity calls are given as the source filed them.
# Experiments:
# Cytochrome P450 1A2 = biological target: T1, Cytochrome P450 1A2 (Homo sapiens, UniProt P05177);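 note: PubChem cytochrome P450 panel assay, CYP1A2 panel member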
# T1 sequence (P05177 whole entry): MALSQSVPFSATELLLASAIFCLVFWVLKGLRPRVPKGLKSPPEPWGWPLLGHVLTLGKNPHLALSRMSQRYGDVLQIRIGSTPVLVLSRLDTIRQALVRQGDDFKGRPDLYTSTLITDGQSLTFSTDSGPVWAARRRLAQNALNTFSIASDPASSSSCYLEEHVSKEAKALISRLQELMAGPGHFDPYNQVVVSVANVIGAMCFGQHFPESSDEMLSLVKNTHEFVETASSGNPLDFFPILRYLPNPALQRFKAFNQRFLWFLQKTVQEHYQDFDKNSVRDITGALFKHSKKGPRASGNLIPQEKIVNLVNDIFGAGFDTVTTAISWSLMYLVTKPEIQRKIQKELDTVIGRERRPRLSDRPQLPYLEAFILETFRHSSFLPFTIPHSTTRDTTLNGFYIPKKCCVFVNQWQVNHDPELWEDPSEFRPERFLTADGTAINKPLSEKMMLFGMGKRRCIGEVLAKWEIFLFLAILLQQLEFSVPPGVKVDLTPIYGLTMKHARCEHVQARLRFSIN
# [1] = biological target: T2, Heat shock factor protein 1 (Mus musculus, UniProt P38532); experiment: inhibition of MG132-induced HSE-luciferase signal, confirmation, cell-based, NIH3T3, luminescence, dose retest (AID 2382); type: functional;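 note: NIH3T3 fibroblasts with HSF1-driven luciferase reporter stressed by proteasome inhibitor MG132; luminescence from HSF1-driven luciferase expression after 8 hours of MG132 stress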
# T2 sequence (P38532 whole entry): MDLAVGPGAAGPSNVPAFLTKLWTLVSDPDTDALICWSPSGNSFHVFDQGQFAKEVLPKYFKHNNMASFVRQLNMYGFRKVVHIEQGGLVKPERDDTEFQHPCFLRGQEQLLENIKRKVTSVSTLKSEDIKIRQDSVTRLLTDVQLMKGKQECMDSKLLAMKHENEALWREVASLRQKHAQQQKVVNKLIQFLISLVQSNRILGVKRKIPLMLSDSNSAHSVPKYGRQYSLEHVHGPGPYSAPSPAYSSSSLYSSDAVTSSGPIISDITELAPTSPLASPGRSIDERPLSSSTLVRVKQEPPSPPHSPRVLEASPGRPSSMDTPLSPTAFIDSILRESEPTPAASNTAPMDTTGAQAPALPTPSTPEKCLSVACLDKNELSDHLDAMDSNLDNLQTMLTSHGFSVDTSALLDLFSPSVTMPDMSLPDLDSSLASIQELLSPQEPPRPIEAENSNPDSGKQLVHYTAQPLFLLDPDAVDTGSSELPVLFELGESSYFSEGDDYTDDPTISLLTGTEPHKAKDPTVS
# [2] = biological target: T3, Rac GTPase-activating protein 1 (Homo sapiens, UniProt Q9H0H5); experiment: MgcRacGAP GTPase-activating activity inhibitors, confirmation, biochemical, ADP Hunter fluorescence, primary and confirmatory (AID 624330); type: functional
# T3 sequence (Q9H0H5 whole entry): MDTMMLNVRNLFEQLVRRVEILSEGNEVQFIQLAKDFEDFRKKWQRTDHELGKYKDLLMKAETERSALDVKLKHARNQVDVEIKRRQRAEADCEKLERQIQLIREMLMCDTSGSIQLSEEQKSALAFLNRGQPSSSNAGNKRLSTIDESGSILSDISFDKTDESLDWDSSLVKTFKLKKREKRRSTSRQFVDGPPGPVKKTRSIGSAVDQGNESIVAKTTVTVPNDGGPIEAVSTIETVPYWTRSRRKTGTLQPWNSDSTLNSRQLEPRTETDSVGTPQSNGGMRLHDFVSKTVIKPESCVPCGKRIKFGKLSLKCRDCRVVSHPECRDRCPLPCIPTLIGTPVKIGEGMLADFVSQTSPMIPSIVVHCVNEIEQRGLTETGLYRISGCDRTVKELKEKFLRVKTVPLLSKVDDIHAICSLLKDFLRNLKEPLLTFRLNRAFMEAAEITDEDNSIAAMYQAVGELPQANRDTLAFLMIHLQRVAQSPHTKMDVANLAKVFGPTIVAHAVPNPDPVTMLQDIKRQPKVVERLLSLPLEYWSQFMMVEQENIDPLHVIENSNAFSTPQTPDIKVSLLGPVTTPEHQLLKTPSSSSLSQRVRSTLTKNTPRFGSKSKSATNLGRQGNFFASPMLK
# cells = type: functional
# Cytochrome P450 2D6 = Cytochrome P450 2D6 (Homo sapiens, UniProt P10635);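 note: CYP2D6 member of a cytochrome P450 panel assay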
# [3] = test system: Streptococcus sp. 'group A'; experiment: growth inhibition of control SK(-) GAS strain, dose response, counter-screen for streptokinase expression inhibitor project, luminescence, kanamycin, BacTiterGlo, confirmation (AID 1900); type: functional, organism-based
# Streptococcus = experiment: Group A Streptococcus viability loss, dose response, counter-screen for streptokinase expression inhibitor project, luminescence, BacTiterGlo (AID 1915); type: functional, organism-based;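 note: potency for reduction of bacterial viability or growth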
# Streptokinase A = biological target: T4, Streptokinase A (Streptococcus pyogenes serotype M1, UniProt P10520); experiment: S. pyogenes streptokinase expression inhibitors, potency, dose response, plasminogen activation absorbance, OD405 (AID 1914); type: functional, Streptococcus pyogenes M1 GAS;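 note: secreted streptokinase activity via plasminogen activation per viability signal from cell pellet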
# T4 sequence (P10520 whole entry): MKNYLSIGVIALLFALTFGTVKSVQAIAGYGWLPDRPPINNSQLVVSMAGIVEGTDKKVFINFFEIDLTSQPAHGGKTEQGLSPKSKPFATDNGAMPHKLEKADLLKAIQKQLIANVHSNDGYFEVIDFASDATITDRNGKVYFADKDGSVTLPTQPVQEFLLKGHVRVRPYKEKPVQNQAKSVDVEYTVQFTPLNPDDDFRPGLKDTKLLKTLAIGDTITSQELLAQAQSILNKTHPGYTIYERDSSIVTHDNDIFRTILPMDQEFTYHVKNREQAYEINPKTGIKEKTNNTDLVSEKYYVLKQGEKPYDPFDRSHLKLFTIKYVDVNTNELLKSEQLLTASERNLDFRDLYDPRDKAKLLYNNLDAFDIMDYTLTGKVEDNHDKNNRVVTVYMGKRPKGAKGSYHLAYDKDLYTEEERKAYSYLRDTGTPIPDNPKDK
# Protein RecA = biological target: T5, Protein RecA (Mycobacterium tuberculosis, UniProt P9WHJ3); experiment: Fluorescence Cell-Free Homogeneous Dose Retest to Identify Inhibitors of RecA-Intein Splicing Activity. [Related pubchem assays (depositor defined):AID2097, AID2223, AID489010, AID492950]; type: functional
# T5 sequence (P9WHJ3 whole entry): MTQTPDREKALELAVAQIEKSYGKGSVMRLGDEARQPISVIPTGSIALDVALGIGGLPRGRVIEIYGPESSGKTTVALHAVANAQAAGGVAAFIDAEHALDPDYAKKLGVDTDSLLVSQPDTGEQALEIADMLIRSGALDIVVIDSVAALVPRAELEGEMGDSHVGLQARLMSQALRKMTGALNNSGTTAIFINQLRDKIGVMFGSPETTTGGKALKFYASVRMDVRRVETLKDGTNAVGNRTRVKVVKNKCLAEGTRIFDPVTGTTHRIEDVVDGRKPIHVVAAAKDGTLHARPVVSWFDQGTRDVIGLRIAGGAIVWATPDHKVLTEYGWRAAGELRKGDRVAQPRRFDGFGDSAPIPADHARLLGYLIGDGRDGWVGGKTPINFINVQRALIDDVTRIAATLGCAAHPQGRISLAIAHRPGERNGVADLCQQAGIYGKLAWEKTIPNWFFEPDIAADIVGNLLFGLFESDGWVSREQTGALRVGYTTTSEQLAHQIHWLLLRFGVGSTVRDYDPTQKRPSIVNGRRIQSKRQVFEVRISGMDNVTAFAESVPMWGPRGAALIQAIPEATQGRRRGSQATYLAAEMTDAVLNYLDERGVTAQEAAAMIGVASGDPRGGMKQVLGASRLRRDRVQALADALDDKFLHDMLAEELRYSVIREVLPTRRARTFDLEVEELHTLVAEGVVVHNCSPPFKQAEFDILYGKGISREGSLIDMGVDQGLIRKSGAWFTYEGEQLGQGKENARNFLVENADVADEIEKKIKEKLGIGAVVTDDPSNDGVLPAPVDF
# [4] = biological target: T6, Replicative DNA helicase DnaB (Mycobacterium tuberculosis, UniProt P9WMR3); experiment: DnaB intein splicing inhibitors, dose response, biochemical, cell-free fluorescence (AID 449749); type: functional
# T6 sequence (P9WMR3 whole entry): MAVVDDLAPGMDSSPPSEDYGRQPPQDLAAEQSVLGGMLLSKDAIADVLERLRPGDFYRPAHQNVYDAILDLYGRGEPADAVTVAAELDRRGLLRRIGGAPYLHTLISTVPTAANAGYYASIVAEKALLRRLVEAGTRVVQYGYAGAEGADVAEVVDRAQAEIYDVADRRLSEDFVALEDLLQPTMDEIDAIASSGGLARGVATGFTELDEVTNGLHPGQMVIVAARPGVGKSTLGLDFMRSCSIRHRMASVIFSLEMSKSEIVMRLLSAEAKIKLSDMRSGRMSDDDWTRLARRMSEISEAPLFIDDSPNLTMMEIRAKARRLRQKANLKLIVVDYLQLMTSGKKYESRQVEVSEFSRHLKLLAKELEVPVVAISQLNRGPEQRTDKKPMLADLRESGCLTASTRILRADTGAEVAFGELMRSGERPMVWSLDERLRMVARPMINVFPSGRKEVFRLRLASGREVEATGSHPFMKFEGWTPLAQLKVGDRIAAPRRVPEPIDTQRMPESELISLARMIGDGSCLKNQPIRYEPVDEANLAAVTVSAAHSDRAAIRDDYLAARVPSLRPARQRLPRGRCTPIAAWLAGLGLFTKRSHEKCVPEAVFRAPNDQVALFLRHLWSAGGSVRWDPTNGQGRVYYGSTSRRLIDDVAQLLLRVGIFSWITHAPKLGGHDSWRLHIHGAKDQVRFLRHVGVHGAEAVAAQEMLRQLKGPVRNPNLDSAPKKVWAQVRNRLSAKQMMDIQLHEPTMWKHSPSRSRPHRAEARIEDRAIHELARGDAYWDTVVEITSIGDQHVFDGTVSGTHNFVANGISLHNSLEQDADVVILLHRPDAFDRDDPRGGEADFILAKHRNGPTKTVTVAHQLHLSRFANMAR
# Cytochrome P450 2D6, sequence (P10635 whole entry): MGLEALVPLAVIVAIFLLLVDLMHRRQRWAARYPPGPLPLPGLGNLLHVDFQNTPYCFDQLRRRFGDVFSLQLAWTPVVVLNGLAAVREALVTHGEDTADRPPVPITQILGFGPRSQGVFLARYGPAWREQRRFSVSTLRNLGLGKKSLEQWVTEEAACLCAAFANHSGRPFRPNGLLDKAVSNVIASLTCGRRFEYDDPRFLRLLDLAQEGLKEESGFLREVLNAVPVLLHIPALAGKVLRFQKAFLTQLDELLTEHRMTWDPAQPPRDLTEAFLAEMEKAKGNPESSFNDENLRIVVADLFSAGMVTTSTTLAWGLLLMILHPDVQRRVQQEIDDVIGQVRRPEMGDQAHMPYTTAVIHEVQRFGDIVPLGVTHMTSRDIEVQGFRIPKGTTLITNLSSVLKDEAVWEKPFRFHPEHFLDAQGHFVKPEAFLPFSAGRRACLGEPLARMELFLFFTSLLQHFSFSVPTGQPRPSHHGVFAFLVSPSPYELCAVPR
structure (smiles),measurement,setting,value
CCNc1ncc2nc(-c3cn(C)c4ccccc34)c(=O)n(Cc3cccc(OC)c3)c2n1,AC50,Cytochrome P450 1A2,12.6 µM (inconclusive)
CCCc1cc(=O)oc2cc(C)cc(OCC(=O)NCCCn3ccnc3)c12,EC50,[1],> 195 µM (not active)
Cc1ccc(C(=O)N/C(=C/c2ccco2)C(=O)Nc2cccc(C(=O)O)c2)cc1,EC50,[1],> 195 µM (not active)
CCN(CC)c1ccc(NC(=O)C2CCCC2)cc1,IC50,[2],63.5 µM (active)
O=C(OCc1cccc([N+](=O)[O-])c1)c1ccc2ccccc2n1,IC50,cells,5.04 µM (active)
COc1ccccc1N1CCN(C[C@@H](C(=O)NC(C)(C)C)c2ccccc2)CC1,AC50,Cytochrome P450 2D6,20 µM (inconclusive)
same,AC50,Cytochrome P450 1A2,0.631 µM (inconclusive)
CCOC(=O)C(=O)NC12CC3CC(CC(C3)C1)C2,IC50,cells,44.5 µM (active)
CCOc1cc(/C=N/NC(=O)c2ccc(NC(=O)C3CC3)cc2)ccc1O,IC50,[2],72.4 µM (active)
Cc1ccccc1C(=O)Nc1nnc(-c2ccco2)o1,IC50,cells,5.71 µM (active)
O=[N+]([O-])c1ccc(SCCc2ccncc2)cc1,EC50,[1],> 195 µM (not active)
O=[N+]([O-])c1ccc(CN2CCN(c3ccccc3Cl)CC2)o1,IC50,cells,0.84 µM (active)
CCS(=O)(=O)NC(C)C(c1cccs1)N1CCN(c2ccc(OC)cc2)CC1 (stereo not drawn),IC50,[2],91.3 µM (active)
COc1ccc(Oc2ncc3ncc(=O)n(CCc4ccccc4)c3n2)cc1,AC50,Cytochrome P450 1A2,0.631 µM (inconclusive)
COc1cc(/C=N/NC(=O)CNC(=O)c2cccs2)ccc1O,IC50,[2],42.2 µM (active)
CCOC(=O)c1cc(NCc2cccs2)ccc1N1CCOCC1,IC50,[2],93 µM (active)
CCOC(=O)c1cc(-c2csc(COc3ccccc3Cl)n2)on1,IC50,cells,0.4 µM (active)
Oc1cc(C(F)(F)F)nc2c(C(F)(F)F)cccc12,EC50,[3],2.62 µM (active)
same,IC50,cells,50 µM (active)
same,EC50,Streptococcus,8.27 µM (active)
O=S(=O)(N[C@H]1C[C@@H](NS(=O)(=O)OCC(Cl)(Cl)Cl)C2CCCCC21)OCC(Cl)(Cl)Cl (stereo partly drawn),EC50,Streptokinase A,1.7 µM (active)
same,EC50,[3],2.45 µM (active)
same,EC50,Protein RecA,50.9 µM (active)
same,EC50,Streptococcus,5.38 µM (active)
same,AC50,[4],3.31 µM (active)
COc1ccc(CN2CCNC(=O)C2CC(=O)NC2CC(C)(C)CC(C)(C)C2)cc1OC (stereo not drawn),EC50,[1],> 195 µM (not active)
C/C(=N/NC(=O)c1ccncc1)C1=C(O)CC(C)(C)CC1=O,IC50,cells,5.71 µM (active)
CN/C(=N\c1ccc(C2=NNC(=O)C[C@@H]2C)cc1)NC#N,AC50,Cytochrome P450 1A2,39.8 µM (inconclusive)
CC(=O)Nc1ccc(N=Nc2ccc(O)cc2)cc1,IC50,[2],27.1 µM (active)
CCCCCCCC/C=C\CCCCCCCC(=O)NCc1ccc(O)c(OC)c1 [OLVANIL],AC50,Cytochrome P450 1A2,20 µM (inconclusive)
COc1ccc(OC)c(CN2CCN(Cc3ccc(OC)c(OC)c3OC)CC2)c1,IC50,[2],77.7 µM (active)
O=C(NC(=S)NCCC1=CCCCC1)c1cncc(Br)c1,EC50,[1],> 195 µM (not active)
N#CC1=C(S)N(c2ccc(F)cc2)C(c2ccco2)NC1=O (stereo not drawn),IC50,[2],84.4 µM (active)
CC(C)Oc1ccc(/C=C(/NC(=O)c2ccccc2)C(=O)NCCC(=O)O)cc1,EC50,[1],> 195 µM (not active)
CCN1CCN(CC(O)COC(c2ccccc2)c2ccccc2C)CC1 (stereo not drawn),IC50,[2],64.1 µM (active)
CN1CCc2cc(Cl)c(O)cc2[C@H](c2ccccc2)C1,AC50,Cytochrome P450 1A2,31.6 µM (inconclusive)
COc1ccccc1NC1=C(Cl)C(=O)N(C2CCCCC2)C1=O,EC50,[1],> 195 µM (not active)
O=C(NCc1cccs1)c1ccccc1[N+](=O)[O-],EC50,[1],> 195 µM (not active)

# Source: ChEMBL document CHEMBL1201862, “PubChem BioAssay data set” (2004)
